Data published in patent US7589077B2, “Antiviral nucleosides” (priority 2001, dated 2009).
≈ marks a conversion by molar mass, not a printed value. Read-outs that look alike come from different tables or passages of the source.

What was measured:
[1] = Cell cytotoxicity in Vero cells; assay type: cell-based; settings: African green monkey, Vero cells
Protocol: (§1) The compounds were assayed for a) their ability to inhibit DHBV DNA replication in duck hepatocytes, b) their ability to inhibit HBV DNA replication in HepG2 2.2.15 cells, c) the cell cytotoxicity in Vero cells, the cell viability in HFF cells, d) the cell proliferation in HFF cells, and e) the T cell proliferation (purified T cells, PHA stimulated). 3-TC was used as a control.

human HBV = assay: HBV DNA replication in HepG2 2.2.15 cells; assay type: cell-based, hepatitis B virus
Protocol: as §1, with “control. Additional compounds described below in the Preparative Examples section were also tested, and the results are shown in Tables 2-4 below. The reference numbers for the compounds are found in the Preparative Examples.” for “control.”

[2] = system: duck hepatitis B virus (DHBV); assay: DHBV DNA replication in primary duck hepatocytes (dot blot hybridization); assay type: cell-based
Protocol: A series of compounds were synthesized and assayed for activity against duck hepatitis B virus (DHBV). […] Test compounds were added to the hepatocyte cultures on day 2 and maintained in culture with media changed every second day until day 12. Cell were harvested at day 14 and lysed with buffer containing 1% SDS. DNA was isolated from the lysate and dot blot hybridization was performed using a DHBV (32P) DNA probe. […]
as §1

[3] = Cell viability in HFF cells (neutral red); assay type: cell-based, human; settings: human, HFF cells
Protocol: (§2) Twenty-four hours prior to assay HFF cells were plated into 96 well plates at a concentration of 2.5×10^4 cells per well. […] The plates were incubated for 7 days in a CO2 incubator at 37° C. At this time the media/drug was aspirated and 200 μL/well of 0.01% neutral red in Dulbecco's Phosphate Buffered Saline (DPBS) was added. This was incubated in the CO2 incubator for 2 h, the dye was aspirated and the cells were washed using a Nunc Plate Washer. After removing the DPBS wash, […] of 50% EtOH: 1% glacial acetic acid in water was added. The plates were rotated for 15 min. and the optical densities were read at 550 nm on a plate reader.

HFF cells [4] = assay: Cell proliferation assay in HFF cells; assay type: cell-based, human; settings: Table 2; for IC50: Homo sapiens, HFF
Protocol: The media from the wells was then aspirated and 2 mL of each drug concentration was then added to each well. The cells were incubated in a CO2 incubator at 37° C. for 72 h. At the end of this time, the media-drug solution was removed and the cells were washed. […] The cell-media mixture was then pipetted up and down vigorously to break up the cell suspension and 0.2 mL of the mixture was added to 9.8 mL of isoton III and counted using a Coulter Counter. Each sample was counted three times with three replicate wells per sample.

HCMV (AD169) = assay: CPE inhibition assay HCMV (AD169) in HFF cells; assay type: cell-based, human cytomegalovirus; settings: for EC50: Human betaherpesvirus 5, AD169, HFF, Table 2
Protocol: (§3) Cytopathic effect (CPE) inhibition assays for HSV-1, HSV-2, HCMV and VZV were performed as follows: Low passage human foreskin fibroblasts (HFF) cells were seeded into 96 well tissue culture plates 24 h prior to use at a cell concentration of 2.5×10^4 cells per mL in 0.1 mL of minimal essential medium (MEM) supplemented with 10% fetal bovine serum (FBS). The cells were then incubated for 24 h at 37° C. in a CO2 incubator. After incubation, the medium was removed and 100 μL of MEM containing 2% FBS was added to all but the first row. In the first row, 125 μL of experimental drug was added in triplicate wells. Medium alone was added to both cell and virus control […]. After incubation, the medium was removed and 100 μl of MEM containing 2% FBS was added to all but the first row. Medium alone was added to both cell and virus control wells. 125 μl of Experimental drug was added in triplicate wells. The drug in the first row of wells was then diluted serially 1:5 throughout the remaining wells by transferring 25 μL using the Cetus Liquid Handling Machine. After dilution of drugs, 100 μL of the appropriate virus concentration was added to each well, excluding the cell control wells which received 100 μL of MEM. For HSY-1 and HSV-2 assays, the virus concentration utilized was 1000 PFU's per well. For CMV and VZV assays, the virus concentration added was 2500 PFU's per well. The plates were then incubated at 37° C. in a CO2 incubator for 3 days for HSV-1 and HSV-2, 10 days for VZV, or 14 days for CMV. After the incubation period, media was aspirated and the cells stained with a 0.1% crystal violet solution for 30 min. The stain was then removed and the plates were allowed to dry 24 h and then read on a Skatron Plate Reader at 620 nm.

VZV (Ellen) = assay: CPE inhibition assay VZV (Ellen) in HFF cells; assay type: cell-based, varicella zoster virus; settings: for EC50: Human alphaherpesvirus 3, HFF, Table 2
Protocol: as §3

Vero cells = assay: Cell cytotoxicity in Vero cells; assay type: cell-based
Protocol: as §1

HFF cells [5] = assay: Cell viability in HFF cells (neutral red); assay type: cell-based, human
Protocol: as §2

HSV-1 (KOS) HSV-TK+ = HSV-1 (KOS) HSV-TK+ antiviral assay; assay type: cell-based, Herpes simplex virus type-1; settings: Table 4
Protocol: as §3

HSV-1 (KOSSB) HSV-TK− = assay: microbe, parasite or virus in culture; assay type: cell-based, Herpes simplex virus type-1; settings: Table 4
Protocol: as §3, with “The” for “Cytopathic effect (CPE) inhibition assays for HSV-1, HSV-2, HCMV and VZV were performed as follows: Low passage human foreskin fibroblasts (HFF) cells were seeded into 96 well tissue culture plates 24 h prior to use at a cell concentration of 2.5×10^4 cells per mL in 0.1 mL of minimal essential medium (MEM) supplemented with 10% fetal bovine serum (FBS). The”

Epstein-Barr Virus (EBV) = assay: EBV immunofluorescence assay in DAUDI cells (P3HR-1 strain); assay type: cell-based
Protocol: The immunofluorescence assay, using monoclonal antibodies, for Epstein-Barr Virus (EBV) was performed as follows: DAUDI cells were infected with the P3HR-1 strain of EBV and the test drug was added after adsorption (45 min. at 37° C.) and washing of the cell cultures. These cultures were then incubated for 2 days in complete medium to allow viral gene expression. Following the 48 h incubation period, the number of cells in each sample were counted and smears were made. Monoclonal antibodies to the different early antigen (EA) components and VCA were than added to the cells, incubated and washed. This was followed by the addition of a fluorescein conjugated rabbit anti mouse Ig antibodies. The number of fluorescence positive cells in the smears were counted and the total number of cells in the cultures positive for EA or VCA were then calculated and compared.

HSV-2 (MS) = assay: CPE inhibition assay HSV-2 (MS) in HFF cells; assay type: cell-based, Herpes simplex virus type-2; settings: Table 4
Protocol: as §3

whole human PBLs = assay: Cell proliferation, whole human PBLs; assay type: cell-based; settings: Table 1
HSV-1 (E-377) = assay: CPE inhibition assay HSV-1 (E-377) in HFF cells; assay type: cell-based, Herpes simplex virus type-1; settings: Table 4
Protocol: as §3

[6] = Duck hepatitis B virus, Hepatocyte, read-out: % Inh. of DHBV DNA in duck hepatocytes @ 10 μg/ml
[7] = Duck hepatitis B virus, Hepatocyte, Table 2, value in brackets, read-out: DHBV DNA in duck hepatocytes [EC50, μg/ml]

Molecule	inhibition at 10 µg/mL [2, 6] [%]	EC50 [2, 7] [µg/mL]	CC50 ([1]; Table 2) [µg/mL]	CC50 at 7 days ([3]; Table 2) [µg/mL]	IC50 (HFF cells [4]) [µg/mL]	EC50 (HCMV (AD169)) [µg/mL]	EC50 (VZV (Ellen)) [µg/mL]	also measured
Nc1ccn([C@@H]2CS[C@H](CO)O2)c(=O)n1 [Compound 3-TC, lamivudine, reference compound]	96	0.01 to 0.05	–	–	–	–	–	CC50 ([1]; Table 5): > 100 µg/mL; inhibition at 0.1 µg/mL (human HBV; Hepatitis B virus, HepG2 2.2.15, read-out: % Inh. of human HBV DNA replication in HepG2 2.2.15 cells @ 0.1 μg/ml (left)): 90%; inhibition at 1 µg/mL ([2]; Duck hepatitis B virus, Hepatocyte, read-out: % Inhibition of DHBV DNA in duck hepatocytes @1.0 μg/ml): 95%; inhibition at 10 µg/mL ([2]; Duck hepatitis B virus, Hepatocyte, read-out: % Inhibition of DHBV DNA in duck hepatocytes @10.0 μg/ml): 100%; EC50 ([2]; Duck hepatitis B virus, Hepatocyte, Table 3a, read-out: % Inhibition of DHBV DNA in duck hepatocytes EC50): 0.07 µM; CC50 at 7 days ([3]; Table 5): > 100 µg/mL
C=C(N=[N+]=[N-])c1cn(COCCO)c(=O)[nH]c1=O [Compound 7, 1-[(2-hydroxyethoxy)methyl]-5-(1-azidovinyl)-uracil]	84	0.01 to 0.1	> 100	> 100	> 100	–	–	–
[N-]=[N+]=NC(CCl)c1cn(COC(CO)CO)c(=O)[nH]c1=O (stereo not drawn) [Compound 10b, 1-[(2-Hydroxy-1-(hydroxymethyl)ethoxy)methyl]-5-(1-azido-2-chloroethyl)uracil]	75	1 to 5	> 200	> 100	> 100	10 (≈ 31.3 µM)	5 (≈ 15.6 µM)	–
[N-]=[N+]=NC(CI)c1cn(COC(CO)CO)c(=O)[nH]c1=O (stereo not drawn) [Compound 10c, 1-[(2-Hydroxy-1-(hydroxymethyl)ethoxy)methyl]-5-(1-azido-2-iodoethyl)uracil]	75	1 to 5	> 200	> 100	> 100	10 (≈ 24.3 µM)	1 (≈ 2.43 µM)	–
C=C(N=[N+]=[N-])c1cn(COC(CO)CO)c(=O)[nH]c1=O [Compound 13]	–	–	–	–	–	–	–	Cell Cytotoxicity, Vero cells CC50 (Vero cells; Table 2): >200 µg/mL; % Inh. of human HBV DNA replication in HepG2 2.2.15 cells @ 0.01 μg/ml (right) (human HBV; Table 2, 0.01 μg/ml): 17.0%; % Inh. of human HBV DNA replication in HepG2 2.2.15 cells @ 0.1 μg/ml (left) (human HBV; Table 2, 0.1 μg/ml): 75.4%; DHBV DNA in duck hepatocytes [EC50, μg/ml] ([2]; Table 2, value in brackets): 0.01 to 0.1 µg/mL; % Inh. of DHBV DNA in duck hepatocytes @ 10 μg/ml ([2]; Table 2, 10 μg/ml): 85.6%; Cell viability HFF cells CC50 (HFF cells [5]; Table 2): >100 µg/mL; Cell proliferation, HFF cells IC50 (HFF cells [4]): >100 µg/mL
[N-]=[N+]=NC(CCl)c1cn(CCC(CO)CO)c(=O)[nH]c1=O (stereo not drawn) [Compound 21b, 1-[4-Hydroxy-3-(hydroxymethyl)-1-butyl]-5-(1-azido-2chloroethyl)uracil]	84	0.1 to 0.5	> 200	> 100	> 100	1 (≈ 3.15 µM)	6 (≈ 18.9 µM)	–
C=C(N=[N+]=[N-])c1cn(CCC(CO)CO)c(=O)[nH]c1=O [Compound 26, 1-[4-Hydroxy-3-(hydroxymethyl),1-butyl]-5-(1-azidovinyl)uracil]	93	0.01 to 0.05	> 200	> 100	> 100	–	–	–
CC1(F)C(=O)NC(=O)N2C3CC(N=[N+]=[N-])C(COC21)O3 [Compound R-13, (5R,6S)5-fluoro-O^6-5′-cyclo-5,6-dihydro-3′-azido-3′-deoxythymidine]	–	–	–	–	–	–	–	HSV-1 (KOS) HSV-TK+ EC50 (HSV-1 (KOS) HSV-TK+): >25 µg/mL; CC50 (Vero cells; Table 1): > 700 µM; HSV-1 (KOSSB) HSV-TK− EC50 (HSV-1 (KOSSB) HSV-TK−): >50 µg/mL; % Inhibition of DHBV DNA replication in duck hepatocytes @10 μg/ml [2]: 36.0%
CCC1(F)C(=O)NC(=O)N([C@@H]2O[C@H](CO)[C@@H](O)[C@@H]2F)C1OC (stereo partly drawn) [RC-1, 5-Ethyl-5-fluoro-6-methoxy-5,6-dihydro-2′-arabinofluoro-2′-deoxyuridine]	–	–	–	–	–	–	–	Cell Cytotoxicity, Vero cells CC50 (Vero cells; Table 5): >100 µg/mL; Cell viability HFF cells CC50 (HFF cells [5]; Table 5): >100 µg/mL; EBV EC50 (Epstein-Barr Virus (EBV); Table 5): <0.08 µg/mL; EBV EC90 (Epstein-Barr Virus (EBV); Table 5, in parentheses): (EC90 = <0.08) μg/ml
(5S,6S)-5-bromo-O^6-5′-cyclo-5,6-dihydro-3′-azido-3′-deoxythymidine [Compound R-1]	–	–	–	–	–	–	–	HSV-2 (MS) EC50 (HSV-2 (MS)): 20 µg/mL; HCMV (AD-169) EC50 (HCMV (AD169); Table 4): 20 µg/mL; HSV-1 (KOS) HSV-TK+ EC50 (HSV-1 (KOS) HSV-TK+): 10 to 25 µg/mL; IC50 (whole human PBLs): 34 µM; HSV-1 (KOSSB) HSV-TK− EC50 (HSV-1 (KOSSB) HSV-TK−): 1 to 10 µg/mL; EC50 (DHBV DNA replication in duck hepatocytes) ([2]; Table 1): (EC50 = 0.035 μg/ml; VZV (Ellen) EC50 (VZV (Ellen); Table 4): >100 µg/mL; HSV-1 (E-377) EC50, μg/ml (HSV-1 (E-377)): 20 μg/ml; EBV EC50 (Epstein-Barr Virus (EBV); Table 4): 1.4 µg/mL
